Results on 18 molecules are retold here after US10081635B2, “Substituted N-(pyrrolidine-3-yl)-7H-pyrrolo[2,3-D]pyrimidine-4-amine as janus kinase inhibitor” (YANG JI CHEMICAL CO., LTD., priority 2014, dated 2018).

Counter-ions that a name gives are not always drawn. Like-named read-outs stand apart in the source and are kept apart here.

Holding throughout (format): biochemical
The target of assay [1] is T1, Human JAK1 (Homo sapiens (Human), UniProt P23458). As to the kind of experiment: In vitro kinase inhibition test, JAK1 (33P-ATP filter scintillation). Particulars: compound at 1 uM; read-out: JAK1 kinase-phosphorylation inhibitory level (% inhibition).
In assay [2] the target is T2, Human JAK2 (Homo sapiens (Human), UniProt O60674). As to the kind of experiment: In vitro kinase inhibition test, JAK2 (33P-ATP filter scintillation). Particulars: compound at 1 uM; read-out: JAK2 kinase-phosphorylation inhibitory level (% inhibition).
The target in assay [3] is T3, Human JAK3 (Homo sapiens (Human), UniProt P52333). As to the kind of experiment: In vitro kinase inhibition test, JAK3 (33P-ATP filter scintillation). Particulars: compound at 1 uM; read-out: JAK3 kinase-phosphorylation inhibitory level (% inhibition).
Assay [4] addresses T4, Human TYK2 (Homo sapiens (Human), UniProt P29597). As to the kind of experiment: In vitro kinase inhibition test, TYK2 (33P-ATP filter scintillation). Particulars: compound at 1 uM; read-out: TYK2 kinase-phosphorylation inhibitory level (% inhibition).
Assay [5] addresses T1, Human JAK1. As to the kind of experiment: In vitro kinase inhibition test, JAK1 (33P-ATP filter scintillation).
In assay [6] the target is T2, Human JAK2. Put plainly: In vitro kinase inhibition test, JAK2 (33P-ATP filter scintillation).
The target of assay [7] is T3, Human JAK3. Put plainly: In vitro kinase inhibition test, JAK3 (33P-ATP filter scintillation).
Assay [8] concerns the target T4, Human TYK2. As to the kind of experiment: In vitro kinase inhibition test, TYK2 (33P-ATP filter scintillation).

T4 sequence (P29597 whole entry): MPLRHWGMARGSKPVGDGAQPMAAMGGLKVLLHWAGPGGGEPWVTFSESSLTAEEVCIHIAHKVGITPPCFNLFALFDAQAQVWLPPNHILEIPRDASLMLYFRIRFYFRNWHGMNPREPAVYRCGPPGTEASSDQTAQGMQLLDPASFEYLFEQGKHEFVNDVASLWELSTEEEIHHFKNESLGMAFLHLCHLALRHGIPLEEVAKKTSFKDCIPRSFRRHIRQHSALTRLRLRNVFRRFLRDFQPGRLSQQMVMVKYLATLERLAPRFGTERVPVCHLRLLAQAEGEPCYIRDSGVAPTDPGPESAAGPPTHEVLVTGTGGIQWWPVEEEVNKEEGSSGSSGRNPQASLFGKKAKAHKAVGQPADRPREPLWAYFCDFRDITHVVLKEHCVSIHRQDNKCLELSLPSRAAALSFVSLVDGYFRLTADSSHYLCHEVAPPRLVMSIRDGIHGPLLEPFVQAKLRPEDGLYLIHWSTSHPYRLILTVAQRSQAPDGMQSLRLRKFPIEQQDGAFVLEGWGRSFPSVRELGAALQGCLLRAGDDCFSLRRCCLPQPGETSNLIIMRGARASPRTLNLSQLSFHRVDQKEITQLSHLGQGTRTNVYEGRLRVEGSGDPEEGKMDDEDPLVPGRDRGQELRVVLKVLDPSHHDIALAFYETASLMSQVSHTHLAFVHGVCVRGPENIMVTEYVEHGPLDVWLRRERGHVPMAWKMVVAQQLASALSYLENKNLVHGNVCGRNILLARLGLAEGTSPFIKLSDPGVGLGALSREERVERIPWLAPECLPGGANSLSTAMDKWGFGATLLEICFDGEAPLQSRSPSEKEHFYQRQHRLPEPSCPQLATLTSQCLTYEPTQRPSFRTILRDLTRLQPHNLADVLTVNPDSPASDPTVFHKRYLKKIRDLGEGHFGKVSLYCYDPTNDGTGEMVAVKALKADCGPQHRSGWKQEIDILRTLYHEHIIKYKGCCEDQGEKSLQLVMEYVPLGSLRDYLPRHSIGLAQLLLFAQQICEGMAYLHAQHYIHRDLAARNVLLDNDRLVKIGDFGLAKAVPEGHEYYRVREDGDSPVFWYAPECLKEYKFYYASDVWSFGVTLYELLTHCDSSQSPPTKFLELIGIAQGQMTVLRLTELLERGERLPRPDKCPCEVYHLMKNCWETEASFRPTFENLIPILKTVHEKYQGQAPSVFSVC
T1 sequence (P23458 whole entry): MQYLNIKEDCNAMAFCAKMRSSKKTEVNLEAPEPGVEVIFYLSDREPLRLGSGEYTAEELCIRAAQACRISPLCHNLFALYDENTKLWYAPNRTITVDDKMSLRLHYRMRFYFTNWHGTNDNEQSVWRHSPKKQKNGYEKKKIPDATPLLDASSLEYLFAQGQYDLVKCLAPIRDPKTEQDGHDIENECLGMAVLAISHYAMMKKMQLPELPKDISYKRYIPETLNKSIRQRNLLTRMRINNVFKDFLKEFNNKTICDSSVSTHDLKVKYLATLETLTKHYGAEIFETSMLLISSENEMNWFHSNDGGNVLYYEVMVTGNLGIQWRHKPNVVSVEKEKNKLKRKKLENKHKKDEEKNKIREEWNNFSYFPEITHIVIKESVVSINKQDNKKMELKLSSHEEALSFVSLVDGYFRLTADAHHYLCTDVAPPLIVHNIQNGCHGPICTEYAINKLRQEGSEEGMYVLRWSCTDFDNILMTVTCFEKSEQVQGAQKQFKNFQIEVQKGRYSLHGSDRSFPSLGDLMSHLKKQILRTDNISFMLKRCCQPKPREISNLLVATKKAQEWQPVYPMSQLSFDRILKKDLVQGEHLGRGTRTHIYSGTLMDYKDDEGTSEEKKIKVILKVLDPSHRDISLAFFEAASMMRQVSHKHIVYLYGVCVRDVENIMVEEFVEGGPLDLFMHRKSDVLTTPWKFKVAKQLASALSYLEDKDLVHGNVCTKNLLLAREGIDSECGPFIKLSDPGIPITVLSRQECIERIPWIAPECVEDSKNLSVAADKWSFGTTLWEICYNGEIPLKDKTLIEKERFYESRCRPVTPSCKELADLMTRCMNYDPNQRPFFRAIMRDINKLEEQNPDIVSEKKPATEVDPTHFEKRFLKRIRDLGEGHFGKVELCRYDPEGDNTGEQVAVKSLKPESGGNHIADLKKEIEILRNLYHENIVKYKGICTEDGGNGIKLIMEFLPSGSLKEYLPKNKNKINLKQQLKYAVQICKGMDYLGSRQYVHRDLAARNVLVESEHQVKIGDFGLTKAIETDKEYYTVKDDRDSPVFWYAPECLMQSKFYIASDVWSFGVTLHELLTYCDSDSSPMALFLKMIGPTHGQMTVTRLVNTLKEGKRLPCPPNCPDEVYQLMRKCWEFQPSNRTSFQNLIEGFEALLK
T2 sequence (O60674 whole entry): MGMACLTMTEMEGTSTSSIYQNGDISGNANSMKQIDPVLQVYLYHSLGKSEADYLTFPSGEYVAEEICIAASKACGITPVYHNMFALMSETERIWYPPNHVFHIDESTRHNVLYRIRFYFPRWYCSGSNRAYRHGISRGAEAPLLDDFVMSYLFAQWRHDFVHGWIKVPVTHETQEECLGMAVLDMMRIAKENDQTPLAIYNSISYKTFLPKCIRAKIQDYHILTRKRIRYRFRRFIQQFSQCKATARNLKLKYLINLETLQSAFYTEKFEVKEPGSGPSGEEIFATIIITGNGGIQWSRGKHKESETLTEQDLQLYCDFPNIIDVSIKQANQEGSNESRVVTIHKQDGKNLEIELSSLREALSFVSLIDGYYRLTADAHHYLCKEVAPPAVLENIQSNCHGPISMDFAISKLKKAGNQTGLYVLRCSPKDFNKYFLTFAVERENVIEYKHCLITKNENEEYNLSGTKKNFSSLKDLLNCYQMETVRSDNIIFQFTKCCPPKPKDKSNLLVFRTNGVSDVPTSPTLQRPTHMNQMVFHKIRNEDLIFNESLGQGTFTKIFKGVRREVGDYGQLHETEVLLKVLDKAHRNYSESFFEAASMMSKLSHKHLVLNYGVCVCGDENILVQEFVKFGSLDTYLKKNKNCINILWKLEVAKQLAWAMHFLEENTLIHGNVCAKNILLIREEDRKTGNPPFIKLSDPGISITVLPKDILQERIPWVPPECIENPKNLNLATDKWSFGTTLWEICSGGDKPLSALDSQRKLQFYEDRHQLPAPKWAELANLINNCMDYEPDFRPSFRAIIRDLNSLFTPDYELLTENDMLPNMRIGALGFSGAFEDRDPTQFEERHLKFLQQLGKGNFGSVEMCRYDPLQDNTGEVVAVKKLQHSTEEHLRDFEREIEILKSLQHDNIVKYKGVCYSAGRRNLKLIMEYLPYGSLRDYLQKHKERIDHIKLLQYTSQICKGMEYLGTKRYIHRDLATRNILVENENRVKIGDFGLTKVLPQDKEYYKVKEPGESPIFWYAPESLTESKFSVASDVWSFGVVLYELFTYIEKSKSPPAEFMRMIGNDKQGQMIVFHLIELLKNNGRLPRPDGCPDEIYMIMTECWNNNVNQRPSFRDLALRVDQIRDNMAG
T3 sequence (P52333 whole entry): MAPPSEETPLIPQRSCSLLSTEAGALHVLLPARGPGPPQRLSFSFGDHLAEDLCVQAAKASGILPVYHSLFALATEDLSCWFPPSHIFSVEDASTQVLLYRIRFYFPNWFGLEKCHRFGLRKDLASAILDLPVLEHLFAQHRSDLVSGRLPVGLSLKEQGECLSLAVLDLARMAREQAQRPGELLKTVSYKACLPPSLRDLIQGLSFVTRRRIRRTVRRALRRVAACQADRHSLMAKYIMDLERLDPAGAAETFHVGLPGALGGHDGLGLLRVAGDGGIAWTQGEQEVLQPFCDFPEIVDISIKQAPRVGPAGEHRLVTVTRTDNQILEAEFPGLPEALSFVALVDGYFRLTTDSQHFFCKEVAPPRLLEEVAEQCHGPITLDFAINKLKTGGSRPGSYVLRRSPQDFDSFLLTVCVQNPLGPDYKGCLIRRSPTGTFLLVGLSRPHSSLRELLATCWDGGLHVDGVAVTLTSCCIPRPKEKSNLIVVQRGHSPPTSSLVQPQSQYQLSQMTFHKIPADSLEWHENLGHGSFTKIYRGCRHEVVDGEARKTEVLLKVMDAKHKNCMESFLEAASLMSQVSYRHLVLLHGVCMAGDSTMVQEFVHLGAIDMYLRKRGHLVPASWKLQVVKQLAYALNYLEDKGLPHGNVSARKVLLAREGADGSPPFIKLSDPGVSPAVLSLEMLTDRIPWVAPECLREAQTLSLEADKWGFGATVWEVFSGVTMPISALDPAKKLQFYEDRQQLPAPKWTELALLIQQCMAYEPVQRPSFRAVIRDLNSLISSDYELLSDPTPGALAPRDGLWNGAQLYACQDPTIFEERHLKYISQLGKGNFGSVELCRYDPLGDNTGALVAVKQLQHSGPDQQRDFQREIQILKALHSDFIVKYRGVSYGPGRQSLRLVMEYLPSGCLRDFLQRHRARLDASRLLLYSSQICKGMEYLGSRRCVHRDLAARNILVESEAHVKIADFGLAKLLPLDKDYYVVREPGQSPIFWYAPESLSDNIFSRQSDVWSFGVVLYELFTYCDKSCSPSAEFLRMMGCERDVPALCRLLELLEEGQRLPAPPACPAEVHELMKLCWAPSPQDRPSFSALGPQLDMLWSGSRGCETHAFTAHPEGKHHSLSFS

On to `CN(c1ncnc2[nH]ccc12)C1CN(C(=O)CC#N)CC12CC2` (racemic) [Example 55, 3-(7-(methyl(7H-pyrrolo[2,3-d]pyrimidin-4-yl)amino)-5-azaspiro[2.4]heptan-5-yl)-3-oxopropanenitrile], for which the inhibition at 1 µM at Human JAK1 [1] was determined as 95%; at Human JAK2 [2], 53%; at Human JAK3 [3], 30%; on Human TYK2 [4], 58%. Further, the IC50 against Human JAK1 [5] is 29.3 nM; against Human JAK2 [6], 148 nM; against Human JAK3 [7], 694 nM; against Human TYK2 [8], 40.4 nM.

For the molecule `CCS(=O)(=O)N1CC(N(C)c2ncnc3[nH]ccc23)C2(CC2)C1` (racemic) [Example 62, N-(5-(ethylsulfonyl)-5-azaspiro[2.4]heptan-7-yl)-N-methyl-7H-pyrrolo[2,3-d]pyrimidin-4-amine], the inhibition at 1 µM on Human JAK1 [1] stood at 95%; on Human JAK2 [2], 59%; at Human JAK3 [3], 59%; on Human TYK2 [4], 67%. For the same molecule, the IC50 at Human JAK1 [5] was 2.8 nM; against Human JAK2 [6], 422 nM; against Human JAK3 [7], > 1000 nM; on Human TYK2 [8], 198 nM.

Take `CN(c1ncnc2[nH]ccc12)[C@H]1CN(S(=O)(=O)c2cccc(C#N)c2)CC12CC2` [Example 41, (R)-3-((7-(methyl(7H-pyrrolo[2,3-d]pyrimidin-4-yl)amino)-5-azaspiro[2.4]heptan-5-yl)sulfonyl)benzonitrile]: the inhibition at 1 µM at Human JAK1 [1] stood at 99%; at Human JAK2 [2], 99%; at Human JAK3 [3], 77%; at Human TYK2 [4], 97%. Moreover, the IC50 at Human JAK1 [5] is 5.8 nM; on Human JAK2 [6] it was 58.6 nM; against Human JAK3 [7], 110 nM; against Human TYK2 [8], 24.7 nM.

Take `CN(c1ncnc2[nH]ccc12)C1CN(C(=O)Cn2ccnc2)CC12CC2` (stereo not shown) [Example 59, 2-(1H-imidazol-1-yl)-1-(7-(methyl(7H-pyrrolo[2,3-d]pyrimidin-4-yl)amino)-5-azaspiro[2.4]heptan-5-yl)ethan-1-one]: the inhibition at 1 µM on Human JAK1 [1] is 72%; on Human JAK2 [2] it was -17%; at Human JAK3 [3], 20%; on Human TYK2 [4], -8%.

As to `CN(c1ncnc2[nH]ccc12)C1CN(C(=S)CC#N)CC12CC2` (stereo not shown) [Example 60, 3-(7-(methyl(7H-pyrrolo[2,3-d]pyrimidin-4-yl)amino)-5-azaspiro[2.4]heptan-5-yl)-3-thioxopropanenitrile], the inhibition at 1 µM is 96% on Human JAK1 [1], -3% on Human JAK2 [2], -14% on Human JAK3 [3] and 0% at Human TYK2 [4].

Take `CC(C)COC(=O)N1CC(N(C)c2ncnc3[nH]ccc23)C2(CC2)C1` (stereo not shown) [Example 61, isobutyl 7-(methyl(7H-pyrrolo[2,3-d]pyrimidin-4-yl)amino)-5-azaspiro[2.4]heptane-5-carboxylate]: the inhibition at 1 µM at Human JAK1 [1] is 85%; at Human JAK2 [2], -9%; at Human JAK3 [3] it was 29%; on Human TYK2 [4] it was 22%.

Regarding `CN(c1ncnc2[nH]ccc12)C1CN(S(=O)(=O)CCN)CC12CC2` (stereo not shown) [Example 63, N-(5-((2-aminoethyl)sulfonyl)-5-azaspiro[2.4]heptan-7-yl)-N-methyl-7H-pyrrolo[2,3-d]pyrimidin-4-amine], the inhibition at 1 µM on Human JAK1 [1] is 91%; on Human JAK2 [2], 43%; at Human JAK3 [3], 7%; on Human TYK2 [4] it was 29%.

As for `CCC(=O)N1C[C@@H](N(C)c2ncnc3[nH]ccc23)C2(CC2)C1` [Example 64, (S)-1-(7-(methyl(7H-pyrrolo[2,3-d]pyrimidin-4-yl)amino)-5-azaspiro[2.4]heptan-5-yl)propan-1-one], the inhibition at 1 µM on Human JAK1 [1] was 16%; at Human JAK2 [2] it was -9%; on Human JAK3 [3], -1%; at Human TYK2 [4], 0%.

`CN(c1ncnc2[nH]ccc12)[C@@H]1CN(C(=O)CN=[N+]=[N-])CC12CC2` [Example 65, (S)-2-azido-1-(7-(methyl(7H-pyrrolo[2,3-d]pyrimidin-4-yl)amino)-5-azaspiro[2.4]heptan-5-yl)ethan-1-one]: the inhibition at 1 µM on Human JAK1 [1] is 41%; on Human JAK2 [2] it was 12%; at Human JAK3 [3], -16%; at Human TYK2 [4] it was 14%.

Regarding `CN(c1ncnc2[nH]ccc12)[C@@H]1CN(C(=O)CC#N)CC12CC2` [Example 66, (S)-3-(7-(methyl(7H-pyrrolo[2,3-d]pyrimidin-4-yl)amino)-5-azaspiro[2.4]heptan-5-yl)-3-oxopropanenitrile], the inhibition at 1 µM was 65% on Human JAK1 [1], -15% on Human JAK2 [2], 17% on Human JAK3 [3] and -16% at Human TYK2 [4]. In addition, the IC50 against Human JAK1 [5] was 787 nM; against Human JAK2 [6] it was > 1000 nM; against Human JAK3 [7] it was > 1000 nM; against Human TYK2 [8], > 1000 nM.

Regarding `CNC(=O)CC(=O)N1C[C@@H](N(C)c2ncnc3[nH]ccc23)C2(CC2)C1` [Example 67, (S)-N-methyl-3-(7-(methyl(7H-pyrrolo[2,3-d]pyrimidin-4-yl)amino)-5-azaspiro[2.4]heptan-5-yl)-3-oxopropanamide], the inhibition at 1 µM is 5% on Human JAK1 [1], -7% on Human JAK2 [2], 0% at Human JAK3 [3] and -4% at Human TYK2 [4].

With `CN(c1ncnc2[nH]ccc12)[C@@H]1CN(C(=O)c2ccc(C#N)cc2)CC12CC2` [Example 68, (S)-4-(7-(methyl(7H-pyrrolo[2,3-d]pyrimidin-4-yl)amino)-5-azaspiro[2.4]heptane-5-carbonyl)benzonitrile], the inhibition at 1 µM on Human JAK1 [1] was 14%; at Human JAK2 [2], -5%; on Human JAK3 [3], -7%; on Human TYK2 [4], 2%.

Turning to `CN(c1ncnc2[nH]ccc12)[C@@H]1CN(C(=S)CC#N)CC12CC2` [Example 69, (S)-3-(7-(methyl(7H-pyrrolo[2,3-d]pyrimidin-4-yl)amino)-5-azaspiro[2.4]heptan-5-yl)-3-thioxopropanenitrile], the inhibition at 1 µM worked out at 58% on Human JAK1 [1], 6% on Human JAK2 [2], 9% at Human JAK3 [3] and 36% at Human TYK2 [4].

As for `CC(C)COC(=O)N1C[C@@H](N(C)c2ncnc3[nH]ccc23)C2(CC2)C1` [Example 70, isobutyl (S)-7-(methyl(7H-pyrrolo[2,3-d]pyrimidin-4-yl)amino)-5-azaspiro[2.4]heptane-5-carboxylate], the inhibition at 1 µM at Human JAK1 [1] is 31%; on Human JAK2 [2], 24%; at Human JAK3 [3] it was -3%; on Human TYK2 [4], 5%.

With `CCS(=O)(=O)N1C[C@@H](N(C)c2ncnc3[nH]ccc23)C2(CC2)C1` [Example 71, (S)-N-(5-(ethylsulfonyl)-5-azaspiro[2.4]heptan-7-yl)-N-methyl-7H-pyrrolo[2,3-d]pyrimidin-4-amine], the inhibition at 1 µM on Human JAK1 [1] was 40%; at Human JAK2 [2], 13%; on Human JAK3 [3] it was -22%; at Human TYK2 [4], 12%.

As for `CN(c1ncnc2[nH]ccc12)[C@@H]1CN(S(=O)(=O)c2ccccc2)CC12CC2` [Example 72, (S)-N-methyl-N-(5-(phenylsulfonyl)-5-azaspiro[2.4]heptan-7-yl)-7H-pyrrolo[2,3-d]pyrimidin-4-amine], the inhibition at 1 µM is 55% on Human JAK1 [1], 10% at Human JAK2 [2], -1% on Human JAK3 [3] and 28% on Human TYK2 [4].

Consider `CCN1C[C@H](N(C)c2ncnc3[nH]ccc23)C2(CC2)C1` [Example 73, (R)-N-(5-ethyl-5-azaspiro[2.4]heptan-7-yl)-N-methyl-7H-pyrrolo[2,3-d]pyrimidin-4-amine], for which the inhibition at 1 µM is 42% on Human JAK1 [1], -6% on Human JAK2 [2], 1% on Human JAK3 [3] and -7% on Human TYK2 [4].

As for `C[C@@H]1CCN(C(=O)CC#N)C[C@@H]1N(C)c1ncnc2[nH]ccc12` [tofacitinib citrate, reference compound], the inhibition at 1 µM on Human TYK2 [8] (read-out: TYK2 kinase-phosphorylation inhibitory level (% inhibition)) was 100%.

As usually defined, the inhibition is the relative decrease from the control value, in per cent. The IC50 is the midpoint of a concentration-inhibition curve. Low values mean higher potency, high ones lower potency.
